According to patent publication US20230346808A1, “CANNABINOID FORMULATIONS AND METHODS OF USE” (PreveCeutical Medical Inc., priority 2020, published 2023):
“And” between values parts separate entries of the source, which are not always exact repeats. Equal entries are not always repeated.

Tests used:
[1] = test system: explanted nasal mucosal tissue; test: Ex vivo deposition into nasal mucosa, vertical Franz-diffusion apparatus; type: in vitro ADME, human; settings: for Deposition of key cannabinoids in µg/g of nasal tissue, Decarboxylated (average of batches D19 & D23): 300 µL decarboxylated sol-gel; for Deposition of key cannabinoids in µg/g of nasal tissue, Decarboxylated (average of batches D19 & D23) / Deposition of key cannabinoids in µg/g of nasal tissue, Native (average of batches N22 & 23): 8 hours post-application, 34° C.; for Deposition of key cannabinoids in µg/g of nasal tissue, Native (average of batches N22 & 23): 300 µL native sol-gel
Protocol: Ex vivo permeation studies were carried out using vertical Franz-diffusion apparatus equipped with temperature-controlled jackets set at 34° C. ± 1° C. Nasal mucosa was taken from middle-turbinate of patients undertaking surgery at Greenslopes Private Hospital. Mucosal tissue was cleaned of blood and bone, then immersed in phosphate-buffered saline (PBS; pH 7.4) at room temperature. The prepared nasal membrane was then sandwiched between donor and receptor cells with the dorsal side of the tissue facing the donor compartment and the ventral side facing the receiver compartment. The receptor cells were filled with 12 mL of PBS and then 300 µL of native or decarboxylated sol-gel samples placed in the donor compartment, ensuring that formulations spread over the entire tissue. To prevent evaporation of the samples, donor cells were covered with Parafilm®. Samples from the receptor cell were taken and volume replaced with PBS at 0, 1, 2, 4, 6 and 8-hours following sol-gel application. Collected tissue samples were then rinsed with MilliQ water after 8 hours, blotted dry with filter paper, wrapped with aluminium foil to protect from light and stored at -80° C. until required for further analysis.
On the day of analysis, the tissue samples were allowed to thaw and were blotted dry using filter paper, cut into small pieces, frozen with liquid nitrogen and ground with a mortar and pestle. Cannabis was extracted from the powdered tissue with ethanol (1 mL) and gently agitated for 12 hours at room temperature. Samples were then transferred to Eppendorf tubes and centrifuged at 10000 rpm for 10 minutes. The supernatant was collected and 100 µL of acetonitrile added to each tube then supernatant collected and again 100 µL was added and stored at -20° C. overnight. The following day each sample was allowed to thaw and centrifuged at 10000 rpm for 10 minutes with supernatant collected and prepared for quantitative analysis using the HPLC method described above in Example 5. Samples of Cannabis sol-gels from native (N22 and N23) and decarboxylated (D19 and D23) extracts were used in this study.
The tissue deposition of cannabinoids was measured per gram of nasal mucosa, with studies based on tissue availability from patients undergoing sinus surgery, and key cannabinoids detected presented in Table 8. The data shown is an average of the 2 native or 2 decarboxylated batches. The amount of sol-gel administered (300 µL) accounts for 3000 µg of cannabinoid content which is a surplus amount (based on micelles, this approximately correlates to the following: for native sol-gels maximum of […] CBDA, 1200 µg THCA; for decarboxylated sol-gels maximum of 960 µg CBDA, 45 µg THCA).

human nasal mucosa [2] = settings: 2 µL applied, media harvested daily for five days, n = 3
Protocol: Lactate dehydrogenase (LDH) is an oxidoreductase enzyme found in living cells that is released into the cytoplasm upon cell lysis that is under stressor conditions. LDH is detected via a colourimetric cytotoxicity assay that provides a measure of membrane integrity, with high titres of LDH being an indicator of acute cellular damage/toxicity (Lim et al, International Forum of Allergy & Rhinology, 2012, 2(1): p 63-68). […] Acute toxicity was assessed in freshly explanted human nasal tissue.
Human specimens were dissected, connective tissue, debris or blood were removed utilising a 15 blade scalpel and divided into 2-3 mm x 2-3 mm x 1-2 mm sections. […]
LDH was used as the biomarker and analysed using the CytoTox 96® Non-Radioactive cytotoxicity assay kit following manufacturer instructions (Promega, Madison WI). […] After the end of the study, the absorbance of each sample was obtained at 490 nm using FLUOstar Omega Spectrophotometer (BMG Labtech, Offenburg, Germany). The extracellular LDH level was calculated as changes in the LDH levels of tissues treated with a formulation versus tissues treated with PBS. Statistical differences were analysed by one-way ANOVA followed by Dunnet’s multiple comparison test using GraphPad Prism software (v 7.03).

human nasal mucosa [3] = settings: tissue from end of the 5 day study
Protocol: Untreated tissue samples and post-treated tissue samples from the end of the study were preserved from each well for histological evaluation. Each sample was fixed using 4% formaldehyde and stored at 4° C. overnight. On the following day, tissues were dipped in 20% sucrose overnight and embedded in OCT, frozen at -20° C. and cryo-sectioned into slices. Staining was performed with hematoxylin and eosin for 1 minute and stained samples dehydrated in ethanol, defatted in xylene and cover-slipped for histological examination.
Tissues were examined for morphological changes.

Compound | Deposition of key cannabinoids in µg/g of nasal tissue, Decarboxylated (average of batches D19 & D23) [1] | Deposition of key cannabinoids in µg/g of nasal tissue, Native (average of batches N22 & 23) [1] | Higher tissue level from decarboxylated versus native sol-gels ([1]; decarboxylated versus native extract infused sol-gels) | Extracellular LDH levels versus PBS negative control (human nasal mucosa [2]) | Morphological changes of epithelial and sub epithelial layers of nasal mucosa (human nasal mucosa [3])
C=C(C)[C@@H]1CCC(C)=C[C@H]1c1c(O)cc(CCCCC)cc1O [CBD, cannabidiol] | 3.56 µg/g and 3.56 ± 1.67 µg/g | 3.47 µg/g and 3.47 ± 1.53 µg/g |  |  | 
C=C(C)[C@@H]1CCC(C)=C[C@H]1c1c(O)cc(CCCCC)c(C(=O)O)c1O [CBDA, Cannabidiolic acid] | 10.9 µg/g and 10.9 ± 1.81 µg/g | 3.14 µg/g and 3.14 ± 2.98 µg/g | ca. 3 fold |  | 
CCCCCc1cc(O)c2c(c1)OC(C)(C)[C@@H]1CCC(C)=C[C@@H]21 [THC, delta-9-tetrahydrocannabinol] | 4.19 µg/g and 4.19 ± 2.20 µg/g | 3.54 µg/g and 3.54 ± 1.74 µg/g |  |  | 
CCCCCc1cc2c(c(O)c1C(=O)O)C1C=C(C)CCC1C(C)(C)O2 (centres unmarked) [THCA, Δ^9-Tetrahydrocannabinolic acid] | 11.3 µg/g and 11.3 ± 10.2 µg/g | 5.73 µg/g and 5.73 ± 0.51 µg/g |  |  | 
O=S(=O)([O-])[O-].[Zn+2] [ZnSO4, Zinc sulfate] |  |  |  | significant elevation in LDH levels at day 2 | gross cell and tissue structural damage
